According to patent US20120136005A1, “E[…] THE TREATMENT OF ANXIETY” (MERZ PHARMA GmbH & CO. KGaA, priority 2009, published 2012):

Assays:
[1] = biological target: T1, human serotonin 5-HT1a receptor (Homo sapiens, UniProt P08908); experiment: GTPγS assay, recombinant CHO-K1 membranes; assay type: biochemical; details: human recombinant cell lines; FIG. 1
T1 construct: expressed in transfected cells; host or cells: CHO-K1 (membranes)
T1 sequence (P08908 1-422): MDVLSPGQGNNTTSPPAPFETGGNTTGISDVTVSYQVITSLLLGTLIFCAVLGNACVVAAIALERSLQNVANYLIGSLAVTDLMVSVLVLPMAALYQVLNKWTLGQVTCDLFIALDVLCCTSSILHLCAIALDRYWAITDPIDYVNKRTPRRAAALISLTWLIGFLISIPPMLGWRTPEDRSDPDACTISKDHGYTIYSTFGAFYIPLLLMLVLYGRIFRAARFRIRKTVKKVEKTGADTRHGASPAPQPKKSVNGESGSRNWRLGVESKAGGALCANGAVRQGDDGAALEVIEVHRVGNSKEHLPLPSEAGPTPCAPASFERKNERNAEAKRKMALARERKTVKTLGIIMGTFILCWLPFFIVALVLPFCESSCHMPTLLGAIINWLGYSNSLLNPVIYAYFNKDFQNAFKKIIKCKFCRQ
Method: (§1) Eltoprazine was tested for activity on the human serotonin 5-HT1a and 5-HT1b receptors using a GTPγS assay. Recombinant membranes obtained from CHO-K1 cells expressing either the 5-HT1a or 5-HT1b receptors were mixed with GDP (volume:volume) and incubated for at least 15 min on ice. In parallel, GTPγ[35S] was mixed with the beads (volume:volume) just before starting the reaction. The following reagents were successively added in the wells of an Optiplate (Perkin Elmer): 50 μl of test compound, 20 μl of the membranes:GDP mix, 10 μl of assay buffer (for agonist testing) and 20 μl of the GTPγ[35S]:beads mix. The plates were covered with a top seal, shaken on an orbital shaker for 2 min, and then incubated for 1 h at room temperature. Then the plates were centrifuged for 10 min at 2000 rpm, incubated at room temperature 1 h and counted for 1 min/well with a PerkinElmer TopCount reader.

[2] = biological target: T2, human serotonin 5-HT1b receptor (Homo sapiens, UniProt P28222); experiment: GTPγS assay, recombinant CHO-K1 membranes; assay type: biochemical; details: human recombinant cell lines; FIG. 1
T2 construct: expressed in transfected cells; host or cells: CHO-K1 (membranes)
T2 sequence (P28222 whole entry): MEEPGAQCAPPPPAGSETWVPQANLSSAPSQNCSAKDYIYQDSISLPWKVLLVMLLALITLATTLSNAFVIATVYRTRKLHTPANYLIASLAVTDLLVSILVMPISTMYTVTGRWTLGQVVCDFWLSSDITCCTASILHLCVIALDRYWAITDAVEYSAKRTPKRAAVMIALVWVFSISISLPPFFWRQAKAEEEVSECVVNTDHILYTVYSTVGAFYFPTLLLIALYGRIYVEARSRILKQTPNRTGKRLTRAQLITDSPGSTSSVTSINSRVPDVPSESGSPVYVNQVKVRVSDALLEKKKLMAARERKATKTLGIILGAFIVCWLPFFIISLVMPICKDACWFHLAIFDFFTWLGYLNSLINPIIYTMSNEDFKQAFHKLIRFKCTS
Method: as §1

[3] = test system: unilaterally 6-OHDA-lesioned rats; experiment: L-DOPA induced dyskinesia (AIM scores) in 6-OHDA-lesioned rat model of Parkinson's disease; assay type: in vivo, Sprague Dawley rats; details: eltoprazine hydrochloride 0.08, 0.3, 1.25 and 5 mg/kg s.c.; after 21 days of L-DOPA; dose-dependent; FIG. 2
Method: Male Sprague Dawley rats (Elevage Janvier, Le Genest Saint Isle, France) weighing between 220 and 250 g at the beginning of the study are used in these experiments. They are housed under a 12 h light/dark cycle with free access to standard pelleted food and tap water. Animal treatment and experimental procedures are approved by local ethical committees (Regierungspräsidium Darmstadt; Germany).
Dopamine-denervating lesions are performed on rats anaesthetized with a 5:1 mixture of ketamine and xylazine (1 ml/kg, i.p.). […] The animals' turning behaviour is recorded in an automated rotometer (TSE Rotameter System, TSE-Systems GmbH, Bad Homburg, Germany) over a 90 min period after the intraperitoneal (i.p.) injection of 2.5 mg/kg dexamphetamine sulphate dissolved in saline. […]
In order to evaluate the severity of LID, AIMs are recorded every second day as described by Cenci et al. (1998). […] Each rat is scored on a severity scale from 0 to 4 based on its frequency and persistence (1=occasional; 2=frequent; 3=continuous but interrupted by sensory distraction; 4=continuous, severe and not interrupted by sensory distraction). […]

c1cc2c(c(N3CCNCC3)c1)OCCO2 [eltoprazine, 1-(2,3-dihydro-1,4-benzodioxin-5-yl)piperazine]
functional activity at 5-HT1a receptor [1]: partial agonistic action
functional activity at 5-HT1b receptor [2]: partial agonistic action
effect on AIM scores [3]: significantly reverses
